In ChEMBL document CHEMBL5244230, “Artemisinin-derived hybrids and their anticancer activity” (Eur J Med Chem, 2020) one finds IC50 data, which are given here for 25 compounds.

For one series, the system named is HCT-15. The series can be described thus: Antiproliferative activity against human HCT-15 cells assessed as cell growth inhibition by MTT assay. The format is functional, cell-based. (In general: Tetrazolium assays rely on reduction of a dye to a coloured formazan, in cell work by metabolically active cells.)
Series [1] relates to HepG2. Briefly: Antiproliferative activity against human HepG2 cells assessed as cell growth inhibition by MTT assay. The format is functional, cell-based.
Series [2] has as its system A549. The series can be described thus: Antiproliferative activity against human A549 cells assessed as cell growth inhibition by MTT assay. The format is functional, cell-based.
Series [3] can be described thus: Cytotoxicity against human HCEC cells. It counts as toxicity, cell-based.
In another series the test system is Hep 3B2. Briefly: Antiproliferative activity against human Hep3B cells assessed as reduction in cell viability. It counts as functional, cell-based.
A further series deals with OVCAR-3. The series can be described thus: Antiproliferative activity against human OVCAR-3 cells assessed as reduction in cell viability. The format is functional, cell-based.
Series [4] concerns HepG2. The series can be described thus: Antiproliferative activity against human HepG2 cells assessed as reduction in cell viability. It counts as functional, cell-based.
Another series relates to A2780. Briefly: Antiproliferative activity against human A2780 cells assessed as reduction in cell viability. It counts as functional, cell-based.
Series [5] has as its system HCT-116. The series can be described thus: Antiproliferative activity against human HCT-116 cells. The format is functional, cell-based.
The subject of the next series is MV4-11. The series can be described thus: Antiproliferative activity against human MV4-11 cells. It counts as functional, cell-based.
Series [6] concerns A549. Briefly: Antiproliferative activity against human A549 cells. The format is functional, cell-based.
A further series concerns SGC-7901. The series can be described thus: Antiproliferative activity against human SGC-7901 cells assessed as reduction in cell viability measured for 24 hrs. Conditions: SGC-7901, 24 h. The format is functional, cell-based.
For series [7], the system named is A549. The series can be described thus: Antiproliferative activity against human A549 cells assessed as reduction in cell viability measured for 24 hrs. The format is functional, cell-based. Conditions: A549, 24 h.
A further series relates to PC-3. Briefly: Antiproliferative activity against human PC-3 cells assessed as reduction in cell viability measured for 24 hrs. The format is functional, cell-based. The note with it: PC-3, 24 h.
Series [8] concerns HeLa. The series can be described thus: Cytotoxicity against human HeLa cells assessed as cell viability incubated for 48 hrs by MTT assay. The format is functional, cell-based.
Series [9] relates to MCF7. The series can be described thus: Anticancer activity against human MCF7 cells assessed as inhibition of cell growth. It counts as functional, cell-based.
A further series relates to P388. Briefly: Anticancer activity against mouse P388 cells. The format is functional, cell-based.
The next series has as its system HL-60. The series can be described thus: Anticancer activity against human HL-60 cells. It counts as functional, cell-based.
The test system of series [10] is MCF7. Briefly: Anticancer activity against human MCF7 cells. It counts as functional, cell-based.
Series [11] is described as follows: Anticancer activity against human Lu1 cells. It counts as functional, cell-based.
The test system of series [12] is HCT-116. The series can be described thus: Antiproliferative activity against human HCT-116 cells assessed as reduction in cell viability. The format is functional, cell-based. Conditions: Homo sapiens, HCT-116.
Series [13] concerns HeLa. The series can be described thus: Antiproliferative activity against human HeLa cells assessed as reduction in cell viability. The format is functional, cell-based.
Series [14] has as its system HepG2. The series can be described thus: Antiproliferative activity against human HepG2 cells. The format is functional, cell-based.
Another series deals with KB. Briefly: Antiproliferative activity against human KB cells. The format is functional, cell-based.

Where “and” joins values, the source holds several entries; their conditions need not be identical. Equal entries are not always repeated. Some results are limits rather than exact numbers.

For the compound `C[C@@H]1CC[C@@H]2[C@]34OO[C@](C)(CC[C@@H]13)O[C@H]4OC(=O)[C@@]21CC(c2ccccc2)=NO1`, the concentration for half-maximal inhibition (IC50) in the series with HCT-15, with HepG2 [1] and in the series on A549 [2] was 4.04 µM throughout.

On to `C[C@H]1[C@H](Sc2ccccc2)O[C@@H]2O[C@@]3(C)CC[C@H]4[C@H](C)CC[C@@H]1[C@@]24OO3`, for which half-maximal inhibition in [3] (IC50) was put at 0.93 µM.

For `CCN(CC)c1ccc2cc(C(=O)N3CCN(CCC[C@H]4O[C@@H]5O[C@@]6(C)CC[C@H]7[C@H](C)CC[C@@H]([C@H]4C)[C@@]57OO6)CC3)c(=O)oc2c1`, the IC50 was found to be 2.33 µM in the series on Hep 3B2; 2.33 µM in the series on OVCAR-3; 2.33 µM in the series on HepG2 [4] (Homo sapiens, HepG2); 2.33 µM with A2780.

For the compound `CCN(CC)c1ccc2cc(C(=O)N3CCN(C(=O)CN4CCN(CCC[C@H]5O[C@@H]6O[C@@]7(C)CC[C@H]8[C@H](C)CC[C@@H]([C@H]5C)[C@@]68OO7)CC4)CC3)c(=O)oc2c1`, the IC50 in the series on Hep 3B2 was 2.33 µM; in the series on OVCAR-3, 2.33 µM; with HepG2 [4] (hepg2) it was 2.33 µM and 6.28 µM; in the series on A2780 it was 2.33 µM.

Regarding `CCN(CC)c1ccc2cc(C(=O)NCCNC(=O)CN3CCN(CCC[C@H]4O[C@@H]5O[C@@]6(C)CC[C@H]7[C@H](C)CC[C@@H]([C@H]4C)[C@@]57OO6)CC3)c(=O)oc2c1`, the IC50 in the series with Hep 3B2 was 2.33 µM; in the series on OVCAR-3 it was 2.33 µM; in the series on HepG2 [4] (hepg2), 2.33 µM and 6.28 µM; with A2780, 2.33 µM.

As for `C[C@H]1[C@@H](OC(=O)CCC(=O)NCCCNc2c3c4ccccc4nc-3n(C)c3ccccc23)O[C@@H]2O[C@@]3(C)CC[C@H]4[C@H](C)CC[C@@H]1[C@@]24OO3`, the IC50 with HCT-116 [5], in the series with MV4-11 and in the series with A549 [6] was 0.072 µM throughout.

Compound `C[C@H]1[C@@H](Sc2ccccc2)O[C@@H]2O[C@@]3(C)CC[C@H]4[C@H](C)CC[C@@H]1[C@@]24OO3` returned an IC50 in series [3] of 5.24 µM.

With `COc1ccc(Sc2cccc(C(=O)O[C@@H]3O[C@@H]4O[C@@]5(C)CC[C@H]6[C@H](C)[C@H](OC(=O)c7cccc(Sc8ccc(OC)cc8)c7)C[C@@H]([C@H]3C)[C@@]46OO5)c2)cc1`, the IC50 in the series on SGC-7901, in the series on A549 [7] and in the series on PC-3 was 1.6 µM in each case.

Take `C[C@H]1[C@@H](OC(=O)CCC(=O)NCC(C)(C)CNc2c3c4ccccc4nc-3n(C)c3ccc(Cl)cc23)O[C@@H]2O[C@@]3(C)CC[C@H]4[C@H](C)CC[C@@H]1[C@@]24OO3`: the IC50 in the series with HCT-116 [5], in the series on MV4-11 and with A549 [6] was 0.072 µM throughout.

As for `COc1ccc2nc3cc(Cl)ccc3c(N3CCN(CCNCCO[C@H]4O[C@@H]5O[C@@]6(C)CC[C@H]7[C@H](C)CC[C@@H]([C@H]4C)[C@@]57OO6)CC3)c2c1`, in the series with HeLa [8], the IC50 stood at 0.4 µM.

For `COC(=O)c1ccc2c(c1)c(NCCCNC(=O)CCC(=O)O[C@H]1O[C@@H]3O[C@@]4(C)CC[C@H]5[C@H](C)CC[C@@H]([C@H]1C)[C@@]35OO4)c1c3ccccc3nc-1n2C`, the IC50 with HCT-116 [5], in the series on MV4-11 and with A549 [6] was 0.072 µM in each case.

For `C[C@H]1[C@@H](OCCc2cn(-c3cccc(C(=O)N4CCCCC4)c3)nn2)O[C@@H]2O[C@@]3(C)CC[C@H]4[C@H](C)CC[C@@H]1[C@@]24OO3`, the IC50 (in the series on MCF7 [9]; in the series with P388; in the series on HL-60; with MCF7 [10]; in [11]) was 5.7 µM in each case.

For `C[C@H]1[C@@H](CCCOP(=O)(O)Oc2ccccc2)O[C@@H]2O[C@@]3(C)CC[C@H]4[C@H](C)CC[C@@H]1[C@@]24OO3`, the IC50 in the series with HCT-116 [12] and with HeLa [13] was 3.82 µM in each case.

With `COC(=O)c1ccc2c(c1)c(NCC(C)(C)CNC(=O)CCC(=O)O[C@H]1O[C@@H]3O[C@@]4(C)CC[C@H]5[C@H](C)CC[C@@H]([C@H]1C)[C@@]35OO4)c1c3ccccc3nc-1n2C`, the IC50 in the series with HCT-116 [5], with MV4-11 and with A549 [6] was 0.072 µM each time.

For `C[C@H]1[C@@H](OC(=O)CCC(=O)NCC(C)(C)CNc2c3c4ccccc4nc-3n(C)c3ccc(Br)cc23)O[C@@H]2O[C@@]3(C)CC[C@H]4[C@H](C)CC[C@@H]1[C@@]24OO3`, the IC50 in the series with HCT-116 [5], with MV4-11 and in the series on A549 [6] was 0.072 µM each time.

Regarding `C[C@H]1[C@@H](CCCOP(=O)(Oc2ccccc2)Oc2ccccc2)O[C@@H]2O[C@@]3(C)CC[C@H]4[C@H](C)CC[C@@H]1[C@@]24OO3`, the IC50 with HCT-116 [12] and with HeLa [13] was 3.82 µM in each case.

`COc1ccc2c(N3CCN(CCCNCCO[C@H]4O[C@@H]5O[C@@]6(C)CC[C@H]7[C@H](C)CC[C@@H]([C@H]4C)[C@@]57OO6)CC3)c3ccc(Cl)cc3nc2c1`: the IC50 with HeLa [8] came out at 0.8 µM.

Regarding `C[C@H]1[C@@H](OC(=O)CCC(=O)NCCCNc2c3ccccc3nc3c2[nH]c2ccccc23)O[C@@H]2O[C@@]3(C)CC[C@H]4[C@H](C)CC[C@@H]1[C@@]24OO3`, the IC50 in the series on HCT-116 [5], with MV4-11 and in the series with A549 [6] was 0.286 µM throughout.

In the case of `C[C@H]1[C@@H](CC(COP(=O)(O)Oc2ccccc2)C[C@H]2O[C@@H]3O[C@]4(C)CC[C@H]5[C@H](C)CC[C@@H]([C@H]2C)[C@@]35OO4)O[C@@H]2O[C@@]3(C)CC[C@H]4[C@H](C)CC[C@@H]1[C@@]24OO3` (stereo partly specified), the IC50 with HCT-116 [12] and with HeLa [13] was 0.04 µM in each case.

In the case of `COc1ccc(Sc2cccc(C(=O)O[C@@H]3O[C@@H]4O[C@@]5(C)CC[C@H]6[C@H](C)[C@H](O)C[C@@H]([C@H]3C)[C@@]46OO5)c2)cc1`, the IC50 with SGC-7901, in the series on A549 [7] and with PC-3 was 4.3 µM in each case.

For the compound `COC(=O)c1ccc2c(c1)c(NCC(O)CNC(=O)CCC(=O)O[C@H]1O[C@@H]3O[C@@]4(C)CC[C@H]5[C@H](C)CC[C@@H]([C@H]1C)[C@@]35OO4)c1c3ccccc3nc-1n2C` (stereo partly specified), the IC50 in the series on HCT-116 [5], in the series with MV4-11 and with A549 [6] was 0.072 µM each time.

`Cc1cn(C2C[C@H](n3cc(CNC(=O)C(C)CC(=O)O[C@@H]4O[C@@H]5O[C@@]6(C)CC[C@H]7[C@H](C)CC[C@@H]([C@H]4C)[C@@]57OO6)nn3)[C@@H](CO)O2)c(=O)[nH]c1=O` (single isomer, unassigned): the IC50 with HepG2 [14] and in the series on KB was 47.6 µM throughout.

Turning to `Cc1cn(C2C[C@H](n3cc(COC(=O)CCC(=O)O[C@@H]4O[C@@H]5O[C@@]6(C)CC[C@H]7[C@H](C)CC[C@@H]([C@H]4C)[C@@]57OO6)nn3)[C@@H](CO)O2)c(=O)[nH]c1=O` (single isomer, unassigned), the IC50 with HepG2 [14] and in the series on KB was 16.5 µM throughout.

With `Cc1c2ccncc2c(C)c2c1[nH]c1ccccc12` [ELLIPTECINE], the IC50 with MCF7 [9] came to 1.7 µM; in the series with P388 it was 1.7 µM; in the series with HL-60 it was 1.7 µM; with HepG2 [14], 0.93 µM; in the series with MCF7 [10], 1.7 µM; in series [11], 1.7 µM. This compound registered an IC50 in the series with KB of 0.81 µM.

Turning to `O=c1[nH]cc(F)c(=O)[nH]1` [FLUOROURACIL], the IC50 is 6.8 µM in the series on SGC-7901; 33.7 µM with HCT-15; 33.7 µM with HepG2 [1]; 6.8 µM in the series on A549 [7]; > 40 µM in the series with MCF7 [10]; > 100 µM in series [3]. The IC50 in the series on PC-3 worked out at 6.8 µM; in the series with A549 [2], 33.7 µM.

Broadly, the IC50 is the concentration that gives 50% inhibition.
